Reference: US8361970B2, “Growth factor binding molecules” (University of South Florida, priority 2000, dated 2013)
Where “and” joins values, the source holds several entries; their conditions need not be identical. Equal values may be shown once. Read-outs that look alike come from different tables or passages of the source.

Experiments:
Type in all cases: cell-based
[1] = tested on: EGF-stimulated EGFR tyrosine phosphorylation and Erk1/Erk2 activation; experiment: EGF-stimulated EGFR tyrosine phosphorylation and Erk1/Erk2 activation in NIH 3T3 cells overexpressing EGFR; details: GFB-111 at concentrations as high as 100 μM
Protocol: (§1) Starved NIII 3T3 cells (PDGF-BB and PDGF-AA), NIH 3T3 cells overexpressing either EGFR (EGF) or Flk-1 (VEGF) are pre-treated with the indicated concentrations of GFB-111 for 5 minutes before 10 minutes of stimulation with PDGF-BB (10 ng/ml), PDGF-AA (10 ng/ml), EGF (100 ng/ml) and VEGF (50 ng/ml). Cell lysates are run on SDS-PAGE gels, then transferred to nitrocellulose and Western blotted with anti-phosphotyrosine (4G 10) or anti-phosphorylated Erk1/Erk2 (New England Biolabs).

[2] = tested on: VEGF-stimulated Flk-1 tyrosine phosphorylation; experiment: Inhibition of VEGF-stimulated Flk-1 tyrosine phosphorylation in Flk-1/3T3 cells; details: Flk-1/3T3, VEGF stimulated; read-out: (IC50) Inhibition Flk-1-Y-P
Protocol: as §1
(§2) In order to identify molecules that would bind vascular endothelial growth factor (VEGF), Flk-1/3T3 cell-based assay is used that relies on VEGF-stimulation of its receptor, Flk-1, tyrosine phosphorylation and subsequent MAP-kinase activation. The assay used herein identical to that used for PDGF, except that NIH 3T3 cells that overexpress Flk-1 are used. GFB-116, which has four identical loops with the sequence GKGK (SEQ ID NO. 10) is shown to be very potent and selective toward blocking the ability of VEGF to stimulate Flk-1 tyrosine phosphorylation and subsequent MAP-kinase activation as measured by phospho erk-1 and erk-2 also referred to in the Table as p42 and p44 (Table 4A). A preferred embodiment of the invention is a compound that binds to a vascular endothelial growth factor, of the general structure III (above) in which R is n-butyl, n-propyl, or benzyl, and X comprise covalently attached identical cyclic peptide loops wherein R1, R2, R3, and R4 are each amino acid side chains, as broadly defined above, that define a tetrapeptide sequence, wherein said tetrapeptide is covalently attached at the amino and carboxy termini of said tetrapeptide to 3-aminomethyl-5-aminobenzamide linking group, and wherein said tetrapeptide sequence is GKGK (SEQ ID NO. 10), GDGY (SEQ ID NO. 6), or functionally related derivatives thereof.

[3] = tested on: IGF-1 stimulated IGF-1R tyrosine phosphorylation; experiment: Inhibition of IGF-1 stimulated IGFR tyrosine phosphorylation in IGFR/3T3 cells; details: for % Inhibition at 100 μM IGF1R-Y-P: IGFR/3T3, IGF-1 stimulated
Protocol: (§3) The ability of the GFB library to block the ability of IGF-1 to stimulate the IFG-1 R tyrosine phosphorylation and MAP kinase activation is evaluated using the cell assay described above with IGF-1R/3T3 cells as target cell. […] A preferred embodiment of the invention is a compound that binds to an insulin-like growth factor-1, of the general structure III, wherein R is n-butyl, n-propyl, or benzyl, and X1, X2, X3, and X4 optionally comprise identical cyclic peptide loops of the general structure II, and wherein R1, R2, R3, and R4 are each amino acid side chains that define a tetrapeptide sequence, wherein said tetrapeptide is covalently attached at the amino and carboxy termini of said tetrapeptide to a 3-aminomethyl-5-aminobenzamide linking group.

[4] = tested on: VEGF-stimulated MAP kinase activation; experiment: Inhibition of VEGF-stimulated MAP kinase (p42/p44, Erk2/Erk1) activation in Flk-1/3T3 cells; details: Flk-1/3T3, VEGF stimulated
Protocol: as §1
(§4) In other experiments, starved NIH 3T3 cells (PDGF-AA, PDGF-BB, aFGF, bFGF), NIH 3T3 cells overexpressing EGFR. IGF-1R or Flk-1 and the human breast carcinoma SkBr3 that overexpresses ErbB2 (HRGβ) are pretreated with GFB-111 (100 μM) for 5 min before 10 min stimulation with the indicated growth factors at the concentrations shown above and aFGF (10 ng/ml), bFGF (50 ng/ml), IGF-1 (50 ng/ml) and HRGβ (10 ng/ml). Cell lysates are then immunoblotted with anti-phospho Erk1/Erk2 as described above.
as §2

[5] = tested on: PDGF-stimulated Erk1/Erk2 activation; experiment: Inhibition of PDGF-stimulated activation of MAPK Erk1/Erk2 (p44/p42) in NIH 3T3 cells; details: NIH 3T3, PDGF stimulated
Protocol: as §1, §4

[6] = tested on: PDGF-stimulated PDGFR tyrosine phosphorylation; experiment: Inhibition of PDGF-stimulated PDGFR tyrosine phosphorylation in NIH 3T3 cells (anti-phosphotyrosine Western blot); details: 5 min pretreatment, PDGF 10 ng/ml 10 min, read-out: (IC50) Inhibition PDGFR-Y-P
Protocol: Starved NIH 3T3 cells are pretreated with various growth factor binding agents (0-100 μM) for 5 min before stimulation with PDGF (10 ng/mL) for 10 min. The cells are then harvested and lysed, and the proteins from the lysates separated by SDS-PAGE and immunoblotted with an anti-phosphotyrosine antibody (4G10: Upstate Biotechnology, Lake Placid, N.Y.). The phosphotyrosine PDGF receptor bands are scanned, and the concentrations of growth factor binding molecules that inhibited the ability of PDGF to stimulate PDGFR tyrosine phosphorylation by 50% are determined.
as §1
A novel series of protein surface binding agents are prepared that bind PDGF and disrupt its signaling function. The molecules are composed of a central calix[4] arene scaffold to which is attached four peptide loop domains (FIG. 1). The peptide loop component is based on a cyclic hexapeptide in which two residues are replaced by a 3-aminomethylbenzoate dipeptide mimetic containing a 5-amino substituent for attachment to the scaffold. The resulting molecules (as shown in Table 1) contain a functionalized and variable surface approximately 500 Å^2 in area. Several peptide loop sequences are synthesized (Table 1) to provide molecular surfaces with negatively and positively charged as well as hydrophobic regions designed to bind to complementary areas on the target growth factor. To identify PDGF binding molecules from this library, a cell-based screening assay is developed with NIH 3T3 cells to detect molecules capable of blocking PDGF-BB-induced tyrosine autophosphorylation of the PDGF receptor. The ability of the identified molecules to bind PDGF-BB and inhibit interaction with its receptor is then confirmed biochemically. Starved NIH 3T3 cells are pretreated for 5 min with the synthetic molecules prior to stimulation with PDGF for 10 min. The effects of the molecules on PDGF-stimulated receptor tyrosine phosphorylation are determined by the antiphosphotyrosine Western blotting as described in Table 1. […] GFB-111 has four-fold symmetry containing 4 identical peptide loops with negative and hydrophobic residues, GlyAspGlyTyr (GDGY) (SEQ ID NO. 6), that are designed to be complementary to the PDGF surface involved in binding to PDGFR. The area of PDGF-BB that binds PDGFR is composed primarily of positive and hydrophobic residues.
Starved NIH 3T3 cells are pretreated with the various GFBs (0-100 μM) for 5 min. prior to stimulation with PDGF (10 ng/ml) for 10 min. The cells are then harvested lysed and the proteins from the lysates are separated by SDS-PAGE and immunoblotted with an anti-phosphotyrosine antibody (4G10, Upstate Biotechnology, Lake Placid, N.Y.). The phosphotyrosine PDGF receptor bands are scanned and the concentrations of GFBs that inhibit the ability of PDGF to stimulate PDGFR tyrosine phosphorylation by 50% are determined. Data for each compound is representative of at least two independent experiments. FIG. 1 illustrates the structure of growth factor binders. GFBs are synthesized as described by Park, H. D. et al., Protein surface recognition by synthetic receptors: A route to novel sub-micromolar inhibitors for chymotrypsin. J. Am. Chem. Soc. 121, 8-13 (1999); and Hamuro, Y. et al., A calixarene with four peptide loops: An antibody mimic for recognition of protein surfaces. Angew. Chemie Int. Ed. Engl. 36, 2680-2683 (1997), each herein incorporated by reference in its respective entirety.

[7] = tested on: IGF-1 stimulated MAP kinase activation; experiment: Inhibition of IGF-1 stimulated MAP kinase (p42/p44) activation in IGFR/3T3 cells; details: 100 μM; IGFR/3T3, IGF-1 stimulated
Protocol: as §4, §3

[8] = tested on: aFGF-stimulated MAP kinase activation of p42 and p44; experiment: Inhibition of aFGF stimulation of p42/p44 MAP kinase in NIH 3T3 cells; details: NIH 3T3
Protocol: as §4
The ability of growth factor binding agents in the library of growth factor binding agents to block an aFGF signal is measured by aFGF-stimulation of MAP kinase activation of p42 and p44 essentially as described above for VEGF. NIH 3T3 cells are used as the target cell. […] A preferred embodiment of the invention is a compound that binds to acidic fibroblast growth factor, of the general structure III, in which R is n-butyl, n-propyl, or benzyl, and X1, X2, X3, and X4 optionally comprise covalently attached cyclic peptide loops of the general structure II, wherein R1, R2, R3, and R4 are each amino acid side chains that define a tetrapeptide sequence, wherein said tetrapeptide is covalently attached at the amino and carboxy termini of said tetrapeptide to a 3-aminomethyl-5-aminobenzamide linking group, and wherein said tetrapeptide sequence is as given, for example, in Table 5.

[9] = read-out: (IC50) Inhibition p42
[10] = read-out: (IC50) Inhibition p44
[11] = head p42/Erk2 (p42 for GFB-132 to 137), read-out: (IC50) Inhibition p42/Erk2

| Compound | Effect on EGF-stimulated EGFR tyrosine phosphorylation and Erk1/Erk2 activation [1] | IC50 [2] | % Inhibition at 100 μM IGF1R-Y-P [3] | IC50 [4, 9] | IC50 [4, 10] | IC50 [5, 11] | IC50 [6] | % Inhibition at 100 μM p42 [7] | % Inhibition at 100 μM p44 [7] | Block of aFGF-stimulation of MAP kinase activation of p42 and p44 [8] | Blocking IGF-1 action ([3]; IGF-1R/3T3 cells) | IC50 [5, 10] |
| --- | --- | --- | --- | --- | --- | --- | --- | --- | --- | --- | --- | --- |
| CNc1cc2c(Nc3cccc(Br)c3)ncnc2cn1 [PD158780, reference compound] | blocks |  |  |  |  |  |  |  |  |  |  |  |
| ADGD [GFB-112] |  | < 10 µM | 0.6% | 10 µM | 10 µM | 26 µM | 29 µM | −7.6% | 30.4% |  |  |  |
| GDDD [GFB-106] |  | < 10 µM |  | < 10 µM | < 10 µM | 33 µM | 8 µM |  |  | very effective |  |  |
| GDDG [GFB-126] |  |  | 51.7% and 51.0% |  |  | 4.6 µM | 1.9 µM | 63.9% and 47.0% | 71.2% and 79.2% | very effective | particularly effective |  |
| GDDG [GFB-127] |  |  | 36.8% and 31.8% |  |  | > 50 µM | 32 µM | 38.4% and 27.2% | 61.6% and 74.4% | very effective |  |  |
| GDFD [GFB-105] |  | < 10 µM | 1.3% | > 100 µM | > 100 µM | 28 µM | 2.4 µM |  |  |  |  |  |
| GDGY [GFB-133] |  |  |  |  |  | 3.2 µM | 0.8 µM |  |  | very effective |  | 3 µM |
| GDSD [GFB-113] |  | < 10 µM | −18.9% | 10 µM | 10 µM | 30 µM | 2.8 µM | −31.4% | 18.7% |  |  |  |
